Experiments:
Format in all cases: in vivo
Viola tricolor [1] = assay: Post-emergence herbicidal action against Viola tricolor; conditions: (Z119) post-emergence; g of a.i./ha: 16, 270, 16 + 270
Source text: (§1) The following abbreviations are used in the description and the tables that follow: • g of a.i./ha=grams of active substance (active ingredient) (=100% active compound) per hectare; • The sum total of the effects of the individual applications is reported under E^A; • expected values according to Colby are each reported under E^C.
(§2) The rating period is reported in days after application (DAT).

Lolium rigidum [2] = assay: Post-emergence herbicidal action against Lolium rigidum
Bromus sterilis [3] = assay: Post-emergence herbicidal action against Bromus sterilis
Source text: as §1, §2

Centaurea cyano = assay: Post-emergence herbicidal action against Centaurea cyano
Procedure, shortened: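 Greenhouse pot-grown plants sprayed post-emergence at the three-leaf stage, three weeks after sowing, with spray-powder or emulsion-concentrate formulations at various dosages in 300 to 800 l/ha water on green parts.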

Matricaria inodora = assay: Post-emergence herbicidal action against Matricaria inodora; conditions: for Herbicidal action: 1 g a.i./ha
Alopecurus myosuroides = assay: Post-emergence herbicidal action against Alopecurus myosuroides; conditions: (Z119) post-emergence, g of a.i./ha: 16, 1, 270, 16 + 270, 1 + 270
Source text: as §1, §2

Lamium purpureum = assay: Post-emergence herbicidal action against Lamium purpureum; conditions: for Herbicidal action: 1 g a.i./ha
Experimental: When the observed efficacies exceed the formal sum total of the values of the tests with individual applications, they also exceed the expected value according to Colby, which is calculated using the formula below and is likewise regarded as an indication of synergism (cf. S. R. Colby; in Weeds 15 (1967) p. 20 to 22): E^C=A+B−([…])
Here: • A=efficacy of the active compound (A) in % at an application rate of a g a.i./ha; • B=efficacy of the active compound (B) in % at an application rate of b g a.i./ha; • E^C=expected value of the effect of the combination (A)+(B) in % at the combined application rate a+b g a.i./ha.
Seeds or rhizome pieces of mono- and dicotyledonous weeds are placed in sandy loam in pots, covered with soil and grown in a greenhouse under good growth conditions (temperature, air humidity, water supply). Three weeks after sowing, the test plants were treated at the three-leaf stage with the compositions according to the invention. The compositions according to the invention formulated as spray powders or as emulsion concentrates were sprayed onto the green plant parts in various dosages with an application rate of 300 to 800 l/ha of water (equivalent). After the test plants have been left to stand in the greenhouse under optimal growth conditions for about 3 to 4 weeks, the action of the preparations is scored visually in comparison to untreated controls. The compositions according to the invention also have good post-emergence herbicidal activity against a broad spectrum of economically important gramineous and broadleaf weeds.

Galium aparine = assay: Post-emergence herbicidal action against Galium aparine; conditions: for Herbicidal action: 28 DAT
Procedure, shortened: (§3)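 Post-emergence foliar application: sandy-loam pots, greenhouse, treatment at three-leaf stage, 300–800 l/ha spray volume. Readout is visual % effect at 3–4 weeks, compared with the Colby expected value for mixtures.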

Bromus sterilis [4] = assay: Post-emergence herbicidal action against Bromus sterilis; remark: listed apart in the source
[5] = system: Lolium rigidum (resistant biotype); assay: Post-emergence herbicidal action against Lolium rigidum (resistant biotype)
Source text: as §1, §2

Viola tricolor [6] = assay: Post-emergence herbicidal action against Viola tricolor
Lolium rigidum [7] = assay: Post-emergence herbicidal action against Lolium rigidum; remark: listed apart in the source
Source text: as §1, §2

Poa annua = assay: Post-emergence herbicidal action against Poa annua
Procedure, shortened: as §3

Phalaris minor [8] = assay: Post-emergence herbicidal action against Phalaris minor
Source text: as §1, §2

Phalaris minor [9] = assay: as above; remark: listed apart in the source
[10] = 14 DAT, resistant biotype, 1 g a.i./ha
[11] = (Z119) post-emergence, g of a.i./ha: 1, 270, 1 + 270

C=C[C@]1(C(=O)N[C@@H]2C=C(C(=O)OC)OC2)CC(c2cc(F)cc(F)c2)=NO1 [Compound A5, methyl (3R)-3-[[(5S)-3-(3,5-difluorophenyl)-5-vinyl-4H-isoxazole-5-carbonyl]amino]-2,3-dihydrofuran-5-carboxylate]
70%: Herbicidal action (Lolium rigidum [2]; 14 DAT, resistant biotype, 16 g a.i./ha) | Herbicidal action (Galium aparine; 16 g a.i./ha) | Herbicidal action (Poa annua; 14 DAT, 16 g a.i./ha) | Herbicidal action 28 DAT against Phalaris minor (Phalaris minor [8]; (Z119) post-emergence, g of a.i./ha: 16, 4, 270, 90, 30, 16 + 270, 16 + 90, 16 + 30, 4 + 270, 4 + 30, 16 g of a.i./ha) | Herbicidal action (Phalaris minor [9]; 28 DAT, 16 g a.i./ha)
50%: Herbicidal action 14 DAT against Bromus sterilis (Bromus sterilis [3]; (Z119) post-emergence, g of a.i./ha: 1, 270, 90, 1 + 270, 1 + 90) | Herbicidal action 14 DAT against Alopecurus myosuroides (Alopecurus myosuroides; 1 g of a.i./ha) | Herbicidal action (Galium aparine; 1 g a.i./ha) | Herbicidal action 28 DAT against Lolium rigidum (Lolium rigidum [7]; (Z119) post-emergence, g of a.i./ha: 16, 4, 1, 270, 90, 30, 16 + 270, 16 + 90, 16 + 30, 4 + 270, 4 + 90, 4 + 30, 1 + 270, 4 g of a.i./ha)
75%: Herbicidal action (Centaurea cyano; 28 DAT, 16 g a.i./ha) | Herbicidal action 28 DAT against Centaurea cyanus (Centaurea cyano; (Z119) post-emergence, g of a.i./ha: 16, 270, 90, 30, 16 + 270, 16 + 90, 16 + 30) | Herbicidal action (Bromus sterilis [4]; 14 DAT, 4 g a.i./ha)
80%: Herbicidal action 14 DAT against Lamium purpureum L. (Lamium purpureum; (Z119) post-emergence, g of a.i./ha by row: 16, 30, 16 + 30) | Herbicidal action (Bromus sterilis [4]; 14 DAT, 16 g a.i./ha)
20%: Herbicidal action (Lolium rigidum [2]; 28 DAT, resistant biotype, 1 g a.i./ha) | Herbicidal action (Centaurea cyano; 14 DAT, 1 g a.i./ha) | Herbicidal action 28 DAT against Lolium rigidum (resistant biotype) [5, 11] | Herbicidal action (Poa annua; 28 DAT, 1 g a.i./ha)
40%: Herbicidal action (Lamium purpureum; 28 DAT) | Herbicidal action (Viola tricolor [6]; 28 DAT, 4 g a.i./ha) | Herbicidal action (Viola tricolor [6]; 28 DAT, 16 g a.i./ha)
10%: Herbicidal action (Matricaria inodora; 28 DAT)
85%: Herbicidal action 14 DAT against Alopecurus myosuroides (Alopecurus myosuroides; 16 g of a.i./ha) | Herbicidal action 14 DAT against Phalaris minor (Phalaris minor [8]; (Z119) post-emergence, g of a.i./ha: 16, 4, 270, 90, 270, 16 + 270, 16 + 90, 4 + 270) | Herbicidal action (Phalaris minor [9]; 14 DAT, 16 g a.i./ha)
60%: Herbicidal action 14 DAT against Viola tricolor (Viola tricolor [1]) | Herbicidal action (Lolium rigidum [2]; 28 DAT, 16 g a.i./ha) | Herbicidal action (Lamium purpureum; 14 DAT) | Herbicidal action 14 DAT against Galium aparine (Galium aparine; (Z119) post-emergence, g of a.i./ha by row: 1, 30, 1 + 30) | Herbicidal action (Viola tricolor [6]; 14 DAT, 16 g a.i./ha) | Herbicidal action 28 DAT against Lolium rigidum (Lolium rigidum [7]; (Z119) post-emergence, g of a.i./ha: 16, 4, 1, 270, 90, 30, 16 + 270, 16 + 90, 16 + 30, 4 + 270, 4 + 90, 4 + 30, 1 + 270, 16 g of a.i./ha) | Herbicidal action 28 DAT against Phalaris minor (Phalaris minor [8]; (Z119) post-emergence, g of a.i./ha: 16, 4, 270, 90, 30, 16 + 270, 16 + 90, 16 + 30, 4 + 270, 4 + 30, 4 g of a.i./ha) | Herbicidal action (Phalaris minor [9]; 14 DAT, 1 g a.i./ha)
30%: Herbicidal action (Lolium rigidum [2]; 14 DAT, 1 g a.i./ha) | Herbicidal action (Lolium rigidum [2]; [10]) | Herbicidal action (Lolium rigidum [2]; 28 DAT, 1 g a.i./ha) | Herbicidal action 28 DAT against Bromus sterilis (Bromus sterilis [3]; [11]) | Herbicidal action (Matricaria inodora; 14 DAT) | Herbicidal action (Bromus sterilis [4]; 28 DAT, 1 g a.i./ha) | Herbicidal action 28 DAT against Lolium rigidum (Lolium rigidum [7]; (Z119) post-emergence, g of a.i./ha: 16, 4, 1, 270, 90, 30, 16 + 270, 16 + 90, 16 + 30, 4 + 270, 4 + 90, 4 + 30, 1 + 270, 1 g of a.i./ha) | Herbicidal action (Poa annua; 14 DAT, 1 g a.i./ha) | Herbicidal action (Phalaris minor [9]; 28 DAT, 1 g a.i./ha)

COC(=O)C1=C[C@@H](NC(=O)[C@@]2(C)CC(c3cc(F)cc(F)c3)=NO2)CO1 [Compound A6, methyl (3R)-3-[[(5R)-3-(3,5-difluorophenyl)-5-methyl-4H-isoxazole-5-carbonyl]amino]-2,3-dihydrofuran-5-carboxylate]
85%: Herbicidal action (Centaurea cyano; 14 DAT, 4 g a.i./ha) | Herbicidal action 14 DAT against Lamium purpureum L. (Lamium purpureum; 4 g of a.i./ha) | Herbicidal action (Bromus sterilis [4]; 14 DAT, 16 g a.i./ha)
60%: Herbicidal action 28 DAT against Galium aparine (Galium aparine; 1 g of a.i./ha) | Herbicidal action (Viola tricolor [6]; 28 DAT, 16 g a.i./ha)
40%: Herbicidal action (Centaurea cyano; 14 DAT, 1 g a.i./ha) | Herbicidal action (Centaurea cyano; 28 DAT, 1 g a.i./ha) | Herbicidal action (Matricaria inodora; 14 DAT)
50%: Herbicidal action (Lolium rigidum [2]; [10]) | Herbicidal action 28 DAT against Bromus sterilis (Bromus sterilis [3]; (Z148) post-emergence, g of a.i./ha: 1, 270, 90, 30, 1 + 270, 1 + 90, 1 + 30) | Herbicidal action (Bromus sterilis [4]; 28 DAT, 1 g a.i./ha) | Herbicidal action (Viola tricolor [6]; 28 DAT, 4 g a.i./ha) | Herbicidal action (Poa annua; 28 DAT, 1 g a.i./ha)
80%: Herbicidal action 14 DAT against Bromus sterilis (Bromus sterilis [3]; (Z148) post-emergence, g of a.i./ha: 4, 1, 270, 90, 30, 4 + 270, 4 + 90, 4 + 30, 1 + 30, 4 g of a.i./ha) | Herbicidal action (Bromus sterilis [4]; 14 DAT, 4 g a.i./ha)
90%: Herbicidal action 28 DAT against Lolium rigidum (Lolium rigidum [7]; 16 g of a.i./ha) | Herbicidal action 28 DAT against Phalaris minor (Phalaris minor [8]; 16 g of a.i./ha) | Herbicidal action (Phalaris minor [9]; 28 DAT, 16 g a.i./ha)
75%: Herbicidal action 14 DAT against Bromus sterilis (Bromus sterilis [3]; (Z148) post-emergence, g of a.i./ha: 4, 1, 270, 90, 30, 4 + 270, 4 + 90, 4 + 30, 1 + 30, 1 g of a.i./ha) | Herbicidal action 28 DAT against Lamium purpureum L. (Lamium purpureum; 1 g of a.i./ha)
70%: Herbicidal action (Lolium rigidum [2]; 28 DAT, resistant biotype, 16 g a.i./ha) | Herbicidal action (Centaurea cyano; 28 DAT, 4 g a.i./ha) | Herbicidal action 14 DAT against Matricaria inodora (Matricaria inodora; 16 g of a.i./ha) | Herbicidal action 28 DAT against Lolium rigidum (resistant biotype) ([5]; 16 g of a.i./ha) | Herbicidal action 28 DAT against Poa annua L. (Poa annua; 16 g of a.i./ha) | Herbicidal action (Poa annua; 28 DAT, 16 g a.i./ha)

— US12171230B2, “Herbicidal compositions” (Bayer Aktiengesellschaft, priority 2018, dated 2024)
